Reference: ChEMBL document CHEMBL5365461, “Degradation of Cyclin-Dependent Kinase 9/Cyclin T1 by Optimized Microtubule-Associated Protein 1 Light Chain 3 Beta-Recruiting Coumarin Analogs” (J Med Chem, 2023)
Active and inactive are the calls of the source. The calls are words filed in the database; no cut-off is given here.

Key:
[1] = molecular target: Cyclin-dependent kinase 9 (Homo sapiens) (UniProt P50750); experiment: (§1) Inhibition of GST-fused human full-length CDK9 (1 to 372(end) residues)/N-terminal GST-fused His-tagged human full-length CyclinT1 (1 to 726(end) residues) expressed in baculovirus expression system at 10 nM using CDK7/9 tide as substrate incubated for 120 mins in presence of ATP by ADP-Glo Kinase assay relative to control
[2] = molecular target: Cyclin-dependent kinase 9 (Homo sapiens) (UniProt P50750); experiment: as §1, with “100” for “10”
U2932 [3] = experiment: Cytotoxicity against human U2932 cells assessed as inhibition of cell growth measured after 72 hrs by CCK-8 assay; assay type: functional, cell-based; settings: U2932, 72 h
U2932 [4] = experiment: Induction of apoptosis in human U2932 cells assessed as early apoptotic cells at 1000 nM incubated for 24 hrs by AnnexinV-FITC/PI staining based flow cytometry analysis (reference value: 6.20%); assay type: functional
[5] = molecular target: Cyclin-dependent kinase 9 (Homo sapiens) (UniProt P50750); experiment: Induction of CDK9 42 kDa degradation in human U2932 cells at 500 nM incubated for 12 hrs in presence of SNS-032 by immunoblotting analysis; assay type: cell-based
[6] = molecular target: Cyclin-dependent kinase 9 (Homo sapiens) (UniProt P50750); experiment: Induction of CDK9 42 kDa degradation in human U2932 cells at 500 nM incubated for 12 hrs in presence of 5,7-Dihydroxy-4-methylcoumarin by immunoblotting analysis; assay type: cell-based
[7] = molecular target: Cyclin-dependent kinase 9 (Homo sapiens) (UniProt P50750); experiment: Induction of CDK9 degradation in LC3B knockout HEK293T cells at 100 nM incubated for 24 hrs by immunoblotting analysis; assay type: cell-based
[8] = Observed MRTinfinity in CD-1 mouse at 5 mg/kg, ip measured after 24 hrs by LC-MS/MS analysis; assay type: ADME, organism-based; settings: in vivo
[9] = Volume of distribution at steady state in CD-1 mouse at 1 mg/kg, iv measured after 24 hrs by LC-MS/MS analysis; assay type: ADME, organism-based; settings: in vivo, read-out: Vdss
MV4-11 [10] = experiment: Antitumor activity against human MV4-11 cells xenografted in mouse assessed as reduction in tumor growth at 5 mg/kg, ip qd measured after 15 days; assay type: functional, organism-based; settings: time 15.0 day
MV4-11 [11] = experiment: Antitumor activity against human MV4-11 cells xenografted in mouse assessed as tumor growth inhibition at 5 mg/kg, ip qd measured after 15 days; assay type: functional; settings: MV4-11, 360 h, time 15 day, read-out: TGI
[12] = Toxicity in mouse xenografted with human MV4-11 cells assessed as change in body weight at 5 mg/kg, ip qd measured after 15 days; assay type: organism-based; settings: in vivo, 360 h, time 15 day
MV4-11 [13] = experiment: Antitumor activity against human MV4-11 cells xenografted in mouse assessed as reduction in CDK9 level in tumor at 5 mg/kg, ip qd measured after 15 days by immunoblotting analysis; assay type: functional, organism-based; settings: time 15.0 day
MV4-11 [14] = experiment: Antitumor activity against human MV4-11 cells xenografted in mouse assessed as reduction in c-Myc level in tumor at 5 mg/kg, ip qd measured after 15 days by immunoblotting analysis; assay type: functional, organism-based; settings: time 15.0 day
MV4-11 [15] = experiment: Antitumor activity against human MV4-11 cells xenografted in mouse assessed as reduction in Mcl level in tumor at 5 mg/kg, ip qd measured after 15 days by immunoblotting analysis; assay type: functional, organism-based; settings: time 15.0 day
[16] = molecular target: CDK9/cyclin T1 (Homo sapiens) (UniProt O60563+P50750); experiment: Induction of CDK9/CyclinT1 degradation in human U2932 cells at 100 nM measured after 24 hrs by immunoblotting analysis; assay type: cell-based
[17] = molecular target: Cyclin-dependent kinase 1 (Homo sapiens) (UniProt P06493); experiment: Induction of CDK1 degradation in human U2932 cells at 100 nM incubated for 24 hrs by immunoblotting analysis; assay type: cell-based
Sequence of Cyclin-dependent kinase 1 (Homo sapiens) (P06493 whole entry, looked up): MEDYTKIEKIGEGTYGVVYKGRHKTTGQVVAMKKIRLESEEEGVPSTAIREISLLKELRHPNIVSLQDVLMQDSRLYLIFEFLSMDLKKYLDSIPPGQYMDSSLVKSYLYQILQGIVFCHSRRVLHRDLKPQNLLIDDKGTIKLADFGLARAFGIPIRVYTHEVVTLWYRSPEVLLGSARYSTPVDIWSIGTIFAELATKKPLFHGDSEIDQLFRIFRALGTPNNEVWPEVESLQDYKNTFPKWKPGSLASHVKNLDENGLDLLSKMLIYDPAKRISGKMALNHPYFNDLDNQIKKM

Sequence of Cyclin-dependent kinase 9 (Homo sapiens) (P50750 whole entry, the tested form may be a part): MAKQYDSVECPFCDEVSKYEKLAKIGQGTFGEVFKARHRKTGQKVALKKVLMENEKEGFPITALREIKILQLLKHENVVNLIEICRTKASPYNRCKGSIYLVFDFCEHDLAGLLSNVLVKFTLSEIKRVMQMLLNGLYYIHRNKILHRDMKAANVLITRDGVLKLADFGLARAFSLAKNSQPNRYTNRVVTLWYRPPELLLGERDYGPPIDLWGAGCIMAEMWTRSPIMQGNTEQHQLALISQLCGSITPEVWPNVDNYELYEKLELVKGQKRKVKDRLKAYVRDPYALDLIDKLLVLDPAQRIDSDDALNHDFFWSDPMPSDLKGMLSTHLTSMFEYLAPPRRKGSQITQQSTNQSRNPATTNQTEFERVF

Row | inhibition [1] | inhibition [2] | Activity [5] | Activity [6] | Activity [7] | MRT inf [8] | Vd [9] | Activity [16] | Activity [17] | Compound | IC50 (U2932 [3]) | Activity (U2932 [4]) | Activity (MV4-11 [10]) | inhibition in vivo at 5 mg/kg (MV4-11 [11]) | Activity [12] | Activity (MV4-11 [13]) | Activity (MV4-11 [14]) | Activity (MV4-11 [15])
1 | 1% | 54% | inactive | inactive | inactive | 4.17 h | 10.5 L/kg | – | – | Cc1cc(=O)oc2cc(O)cc(OCCCCCN3CCC(C(=O)Nc4ncc(SCc5ncc(C(C)(C)C)o5)s4)CC3)c12 | 45 nM | 15.2% | Active | 52% | Non-Toxic | Active | Active | Active
2 | 1% | 65% | inactive | inactive | inactive | 3.84 h | 5.7 L/kg | Active | Active | Cc1cc(=O)oc2cc(OCCCN3CCC(C(=O)Nc4ncc(SCc5ncc(C(C)(C)C)o5)s4)CC3)cc(O)c12 | 45 nM | 11.8% | – | – | – | – | – | –
